# Experiments:
# Assay type in all cases: biochemical
# Conditions in all cases: result in words
# [1] = biological target: T1, NKTR (Homo sapiens, UniProt P30414); assay: chymotrypsin coupled PPIase assay, NKTR inhibition
# T1 sequence (P30414 1-1462): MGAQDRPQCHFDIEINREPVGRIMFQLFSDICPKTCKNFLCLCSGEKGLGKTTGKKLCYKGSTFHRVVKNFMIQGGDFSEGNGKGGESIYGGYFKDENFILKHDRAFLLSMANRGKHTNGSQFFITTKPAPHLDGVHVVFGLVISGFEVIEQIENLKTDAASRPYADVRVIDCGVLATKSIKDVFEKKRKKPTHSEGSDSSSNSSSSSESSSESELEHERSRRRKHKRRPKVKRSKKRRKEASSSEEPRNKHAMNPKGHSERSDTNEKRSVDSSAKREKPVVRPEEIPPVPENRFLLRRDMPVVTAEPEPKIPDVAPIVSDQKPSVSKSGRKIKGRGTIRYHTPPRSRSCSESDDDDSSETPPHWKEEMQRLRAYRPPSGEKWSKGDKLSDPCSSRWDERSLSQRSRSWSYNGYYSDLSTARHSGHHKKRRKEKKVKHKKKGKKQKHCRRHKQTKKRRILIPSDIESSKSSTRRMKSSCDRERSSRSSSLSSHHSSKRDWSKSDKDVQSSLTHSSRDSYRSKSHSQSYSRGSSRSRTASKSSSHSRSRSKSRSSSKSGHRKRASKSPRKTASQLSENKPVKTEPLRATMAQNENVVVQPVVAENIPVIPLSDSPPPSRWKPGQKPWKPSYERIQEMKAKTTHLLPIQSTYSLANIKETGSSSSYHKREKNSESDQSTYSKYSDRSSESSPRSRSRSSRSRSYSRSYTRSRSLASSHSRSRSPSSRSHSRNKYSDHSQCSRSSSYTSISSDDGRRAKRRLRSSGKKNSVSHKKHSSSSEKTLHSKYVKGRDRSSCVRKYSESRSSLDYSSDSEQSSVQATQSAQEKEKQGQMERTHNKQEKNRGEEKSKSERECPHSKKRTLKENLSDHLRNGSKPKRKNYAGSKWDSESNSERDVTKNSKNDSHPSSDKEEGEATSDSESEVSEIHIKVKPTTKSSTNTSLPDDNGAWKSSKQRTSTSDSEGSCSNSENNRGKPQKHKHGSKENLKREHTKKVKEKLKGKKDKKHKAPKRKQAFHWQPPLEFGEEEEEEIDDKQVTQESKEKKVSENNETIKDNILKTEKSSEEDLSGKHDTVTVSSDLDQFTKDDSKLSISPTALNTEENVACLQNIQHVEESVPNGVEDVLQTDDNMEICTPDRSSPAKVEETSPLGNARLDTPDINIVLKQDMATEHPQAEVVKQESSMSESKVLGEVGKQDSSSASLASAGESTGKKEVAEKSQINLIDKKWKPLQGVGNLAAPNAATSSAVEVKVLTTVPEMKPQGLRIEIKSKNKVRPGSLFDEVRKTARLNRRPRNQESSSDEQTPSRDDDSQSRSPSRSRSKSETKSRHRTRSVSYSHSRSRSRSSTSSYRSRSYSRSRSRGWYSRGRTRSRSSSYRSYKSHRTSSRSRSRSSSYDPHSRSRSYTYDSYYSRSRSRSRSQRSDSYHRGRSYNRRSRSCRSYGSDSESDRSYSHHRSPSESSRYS
# Procedure: (§1) Following the synthesis of the indicated library members, in vitro inhibition (IC50) assays of these hits were conducted to obtain IC50 inhibitory data. For the IC50 assays, a chymotrypsin coupled PPIase assay using Suc-AAPF-AMC as the peptide substrate was used, whereby isomerization of a peptide substrate Suc-AAPF-AMC from the cis to trans conformation allowed for proteolysis via excess a-chymotrypsin, releasing the C-terminal coumarin fluorophore. […] Other non-inhibitor library members were also checked for binding via SPR, but produced the same profile as the prolyl isomerase assay.
# (§2) Subsequently, to determine if the compounds could both access the S2 pocket and display CypD specificity, JOMBtrans and compound 49 were screened against the 10 other cyclophilins with reported prolyl isomerase activity. […] Co-crystal structures of JOMBtrans and 49 were solved with CypD. […] Three further H-bonds with the macrocycle's backbone and CypD were observed along with a cation-n interaction. […] The benzyl group on the piperidine ring altered the conformation of the macrocycle to open up two new hydrogen bonding interactions with CypD. […] This improvement in specificity compared to JOMBtrans signified that more CypD specific compounds can be garnered by derivatization into the S2 pocket.
# [2] = biological target: T2, CypG (Homo sapiens, UniProt Q13427); assay: chymotrypsin coupled PPIase assay, CypG inhibition
# T2 sequence (Q13427 1-754): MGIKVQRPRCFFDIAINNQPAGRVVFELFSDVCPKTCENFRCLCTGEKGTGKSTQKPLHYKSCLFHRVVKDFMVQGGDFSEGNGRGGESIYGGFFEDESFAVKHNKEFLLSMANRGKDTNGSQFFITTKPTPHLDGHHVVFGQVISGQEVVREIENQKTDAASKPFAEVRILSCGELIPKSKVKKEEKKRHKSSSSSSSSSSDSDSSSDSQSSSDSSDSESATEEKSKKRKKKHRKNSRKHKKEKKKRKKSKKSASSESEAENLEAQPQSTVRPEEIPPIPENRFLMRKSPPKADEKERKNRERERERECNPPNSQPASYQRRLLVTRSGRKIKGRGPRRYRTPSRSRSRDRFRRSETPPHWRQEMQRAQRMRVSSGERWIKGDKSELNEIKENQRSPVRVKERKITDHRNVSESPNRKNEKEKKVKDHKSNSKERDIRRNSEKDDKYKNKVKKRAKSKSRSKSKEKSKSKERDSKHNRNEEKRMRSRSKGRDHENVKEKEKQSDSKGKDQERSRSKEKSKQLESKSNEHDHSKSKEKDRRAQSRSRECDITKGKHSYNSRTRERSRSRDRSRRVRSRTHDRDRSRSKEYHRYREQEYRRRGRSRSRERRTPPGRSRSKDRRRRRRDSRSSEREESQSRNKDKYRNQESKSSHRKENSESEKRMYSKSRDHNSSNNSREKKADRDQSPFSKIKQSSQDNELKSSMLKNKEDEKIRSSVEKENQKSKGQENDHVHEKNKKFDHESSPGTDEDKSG
# Procedure: as §1, §2
# [3] = biological target: CypH (Homo sapiens, UniProt O43447); assay: chymotrypsin coupled PPIase assay, CypH inhibition
# Chain of CypH (O43447 whole entry): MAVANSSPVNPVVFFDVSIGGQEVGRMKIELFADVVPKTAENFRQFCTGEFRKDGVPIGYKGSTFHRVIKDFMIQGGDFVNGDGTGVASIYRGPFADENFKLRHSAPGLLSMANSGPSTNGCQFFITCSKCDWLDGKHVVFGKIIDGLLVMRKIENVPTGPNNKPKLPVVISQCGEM
# Procedure: as §1, §2
structure (smiles),measurement,setting,value
NCCOCCNC(=O)[C@@H]1CCNC(=O)/C=C/C(=O)N2CCC[C@H](C2)C(=O)N[C@@H](Cc2ccc(C(=O)c3ccccc3)cc2)C(=O)NCc2ccccc2CC(=O)N1 [compound 27],inhibition of NKTR,[1],Almost complete ablation of inhibition profiles
same,inhibition of CypG,[2],Almost complete ablation of inhibition profiles
same,inhibition of CypH,[3],Almost complete ablation of inhibition profiles
